Laboratory results as given in patent publication EP0091995B1, “New compound having antiinflammatory, analgesic and mucoregulating activity, process for its production and relative pharmaceutical compositions” (AUSONIA FARMACEUTICI S.r.l., priority 1982, dated 1983).

Assays:
male Wistar rat = assay: Bronchosecretogogue activity (Mawatari technique); format: in vivo; conditions: 500 mg/kg/os; FlNa = Sodium fluoresceine
Description: The bronchosecretogogue activity has been determined in male Wistar rat by per os administration according to the method of Mawatari [Mawatari H., Kagoshima Daigaku Igaku-Zasshi, 27, 561 (1976)], comparing AFP-695 with carboxymethylcysteine and sobrerol at the doses hereinafter stated.

male rabbit = assay: Mucosecretolytic activity (technique of Giraldez et al); format: in vivo; conditions: 500 mg/kg/os
Description: The mucosecretolytic activity has been studied in the male rabbit according to the technique of Giraldez, Grass and Bruseghini(Abstr. Comp. Int. Pharm. N. 1086-Paris 1978), by administration by the oral route, comparing AFP-695 with carboxymethylcysteine and sobrerol at the dose hereinafter stated.

Sprague-Dawley rats = assay: Antiinflammatory activity, pleuritis by carrageenin (method of Vinegar); format: in vivo; conditions: oral route
Rats = assay: Gastrolesive action (gastric mucosa examination); format: in vivo; conditions: rats fasting 18 hours; 5 hours 30 minutes after treatment; Ibuprofen 100 mg/kg/os, AFP-695 150 mg/kg/os
Description: 5 Hours and 30 minutes after treatments, the animals have been sacrificed and the stomach has been withdrawn for gastric mucosa examination.

mouse = assay: Analgesic activity, writhings by phenylquinone; format: in vivo; conditions: 100 mg/kg os
Description: The test of writhings by phenylquinone in the mouse has been used.
The two drugs have been administered per os 30 minutes […] intraperitoneal injection of phenylquinone.

rat = assay: Antiinflammatory activity, subplantar edema by carrageenin; conditions: Ibuprofen 100 mg/kg os, AFP-695 150 mg/kg os
Description: Tests have been performed on the rat, employing the test of the subplantar edema induced by carrageenin. […] After edema induction, the animals of each group have been controlled, every 60 minutes for 5 consecutive hours, in order to point out the evolution of the inflammatory process.

rabbits = assay: Anti-cough activity, cough induced by citric acid aerosol; conditions: mean number of cough strokes; endoperitoneal route; Codeine 12.5 mg/kg, AFP-695 150 mg/kg
[1] = Acute toxicity (method of Litchfield and Wilcoxon); conditions: in vivo, oral, os
Description: The acute toxicity has been determined in Swiss mouse and in Wistar rat for different administration routes, according to the method of Litchfield J.T. and Wilcoxon [J. Pharm. Exp. Therap. 96, 99-113, (1949)].
The results obtained are reported in the following Table I; from the same it can be pointed out how AFP is endowed with a very low acute toxicity.

[2] = Pharmacokinetics, plasma and lung levels by gas chromatography; format: in vivo, rats; conditions: 100 mg/kg per os; at 30 minutes, and in some instance also at 1 hour
Description: At the moment of treatment rats were fasting since 18 hours. Rats have been then sacrificed in groups of 4 at different times: 30 min., 1 h, 2 h, 4 h, 6 h.
The concentration both of unchanged products and of their metabolites have been measured by gas chromatography in plasma and in the lung.

[3] = Solubility of the product of the Example; format: physicochemical
Description: Its structure is confirmed by analytical and spectroscopical data. • Elemental analysis: • for C23H3403(M.W. = 358.49) • calcd. % C = 77.05; H = 9.56 • found % C = 76.88; H = 9.60. • I.R. Spectrum • (liquid film; absorption band values are expressed in cm^-1): • stretch 0-H 3400-3250 • stretch C=O 1735 • stretch C-0 1205 • H^1 NMR Spectrum • (recorded in CDCI3, internal reference TMS; values of the chemical shifts are expressed in δ): • 0.65-1.2(m, 12H, -CH(CH3)2, C(CH3)2); • 1.3-2 (m, 12H, CH2―CH―CH2, CH2-CH, CH3-CH, OH mobile); • 2.3 (d, 3H, =C-CH3); • 3.5 (q, 1 H, CH3-CH-CO); • 4.7-5 (m, 1H,―CH―O―CO); • 5.3-5.6 (m, 1H, =CH-CH2); • 6.6-7 (m, 4H, aromatics).

Structure (SMILES)	% Increase of FlNa(*) in comparison with controls (male Wistar rat) [%]	% Increase of secretion in comparison with controls (male rabbit) [%]	decrease of leucocytes number (Sprague-Dawley rats; 24th hour, equiponderant doses) [%]	Mean ulcers size (Rats) [mm]	% Inhibition in comparison with controls (mouse) [%]	Mean No. of writhings (mouse)	No. animals with writhings (mouse)	AREA % Inhibition in comparison with controls (rat) [%]	% Inhibition in comparison with controls (rabbits) [%]	other results
CC1=CCC(C(C)(C)O)CC1O (stereo not drawn) [Sobrerol, 2-methyl-5-(1-hydroxy-1-methyl-ethyl)-2-cyclohexen-1-ol, reference compound]	33.4	36.8								
CC(C)Cc1ccc(C(C)C(=O)O)cc1 (stereo not drawn) [Ibuprofen, 2-(4-isobutylphenyl)-propionic acid, reference compound]			5.58	9.6 ± 1.8	89.84	1.3 ± 0.5	1/10	44.2		
COc1ccc2c3c1O[C@H]1[C@@H](O)C=C[C@H]4[C@@H](C2)N(C)CC[C@@]341 [Codeine, codeine, reference compound]									76.7	
CC1=CCC(C(C)(C)O)CC1OC(=O)C(C)c1ccc(CC(C)C)cc1 (stereo not drawn) [AFP-695, 2-methyl-5-(1-hydroxy-1-methylethyl)-cyclohex-2-enyl 2-(4-isobutylphenyl)propionate]	51.6	35.7	60.89	0.9 ± 0.3	71.09	3.7 ± 1.2	3/10	42.8	78.1	LD50 ([1]; Swiss, mouse): 1800 mg/kg; LD50 ([1]; Wistar, rat): 2200 mg/kg; decrease of the exudate volume, in comparison with control (Sprague-Dawley rats; 24th hour, equiponderant doses): 51.02%; decrease of the number of leucocytes (Sprague-Dawley rats; fifth hour after treatment): 70.91%; decrease of the exudate (Sprague-Dawley rats; fifth hour after treatment, 30 minutes before intrapleural injection): 41.84%; unchanged AFP-695 in plasma [2]: has been found in plasma; solubility in the common organic solvents ([3]; common organic solvents): easily soluble in the common organic solvents; solubility in water ([3]; water): substantially insoluble in water; AREA Absolute value (rat; area of limb volume over 0-5 hours): 156.2; MEAN LIMB VOLUME AT DIFFERENT HOURS AFTER TREATMENT 0 (rat; hour 0, 30 minutes before carrageenin): 22.8; MEAN LIMB VOLUME AT DIFFERENT HOURS AFTER TREATMENT 1 (rat; hour 1): 27.2; MEAN LIMB VOLUME AT DIFFERENT HOURS AFTER TREATMENT 2 (rat; hour 2): 29.6; MEAN LIMB VOLUME AT DIFFERENT HOURS AFTER TREATMENT 3 (rat; hour 3): 31.4; MEAN LIMB VOLUME AT DIFFERENT HOURS AFTER TREATMENT 4 (rat; hour 4): 32.6; MEAN LIMB VOLUME AT DIFFERENT HOURS AFTER TREATMENT 5 (rat; hour 5): 34.9
